# Measurements taken from patent US20110028566A1, “COMPOSITIONS AND PRODUCTS CONTAINING CYCLOALIPHATIC DIOL ANTIMICROBIAL AGENTS AND METHODS OF USING THE COMPOSITIONS AND PRODUCTS” (EASTMAN CHEMICAL COMPANY, priority 2009, published 2011).
# How the values were obtained:
# Test in all cases: Microbial challenge testing in BPW
# Assay type in all cases: cell-based
# [1] = test system: Candida albicans; conditions: for Grade code, C. albicans, 3 Day / Grade code, C. albicans, 14 Day / Grade code, C. albicans, 30 Days: BPW, w/v % in label, average of replicates
# How it was run: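 C. albicans was grown in TSB with 1% dextrose at 22°C and harvested by gauze filtration and centrifugation. It was then adjusted by turbidity in pH 7.2 phosphate buffer and checked by hemocytometer and SDA plate counts. The inoculum was added to BPW (pH 7.0, 1% dextrose) containing test materials, giving 10^5–10^6 cfu/mL at time zero.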
# [2] = test system: Staphylococcus epidermidis; conditions: for Grade code, S. epidermidis, 3 Days / Grade code, S. epidermidis, 13 Days / Grade code, S. epidermidis, 30 Days: BPW, w/v % in label, average of replicates
# How it was run: (§1)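 BPW + 1% dextrose, pH 7.0; test material added as g/100 mL; inoculum from TSB/1% dextrose cultures grown ≥96 h at 35° C.; t0 load 10^5–10^6 cfu/mL; 35° C.±2° C. ×14 d, then RT.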
# [3] = test system: Streptococcus mutans; conditions: for Grade code, S. mutans, 3 Day / Grade code, S. mutans, 13 Day / Grade code, S. mutans, 30 Days: BPW, w/v % in label, average of replicates
# How it was run: as §1
# [4] = 3 days incubation, listed as 0.5% AB
# [5] = 3 days incubation, listed as 1.25% AB
# [6] = 3 days incubation, listed as 2.5% AB
# [7] = 30 days incubation, listed as 0.5% AB
# [8] = 30 days incubation, listed as 1.25% AB
# [9] = 30 days incubation, listed as 2.5% AB
# [10] = 13 days incubation, listed as 0.5% AB
# [11] = 13 days incubation, listed as 1.25% AB
# [12] = 13 days incubation, listed as 2.5% AB
smiles,measurement,setting,value
"OCC1CCC(CO)CC1 (stereo not drawn) [1,4-CHDM, 1,4-cyclohexanedimethanol]",Grade code C. albicans,"[1]; 0.5%, 3 days incubation","3 (101 to 1000 colonies (thus 1000 to 10,000 cfu/mL))"
same,Grade code C. albicans,"[1]; 0.5%, 14 days incubation","4 (1001 to 10,000 colonies (thus 10,000 cfu/mL to 100,000 cfu/mL))"
same,Grade code C. albicans,"[1]; 0.5%, 30 days incubation","4 (1001 to 10,000 colonies (thus 10,000 cfu/mL to 100,000 cfu/mL))"
same,Grade code C. albicans,"[1]; 1.25%, 3 days incubation",1 (1 to 51 colonies counted (thus 10 to 510 cfu/mL))
same,Grade code C. albicans,"[1]; 1.25%, 14 days incubation","3 (101 to 1000 colonies (thus 1000 to 10,000 cfu/mL))"
same,Grade code C. albicans,"[1]; 1.25%, 30 days incubation","4 (1001 to 10,000 colonies (thus 10,000 cfu/mL to 100,000 cfu/mL))"
same,Grade code C. albicans,"[1]; 2.5%, 3 days incubation",0 (No growth detected or <1 colony (thus <10 cfu/mL))
same,Grade code C. albicans,"[1]; 2.5%, 14 days incubation",2 (52 to 100 colonies counted (thus 520 to 1000 cfu/mL))
same,Grade code C. albicans,"[1]; 2.5%, 30 days incubation",1 (1 to 51 colonies counted (thus 10 to 510 cfu/mL))
same,"Grade code, C. albicans, 3 Day",[1]; [4],"3 (101 to 1000 colonies (thus 1000 to 10,000 cfu/mL))"
same,"Grade code, C. albicans, 3 Day",[1]; [5],1 (1 to 51 colonies counted (thus 10 to 510 cfu/mL))
same,"Grade code, C. albicans, 3 Day",[1]; [6],0 (No growth detected or <1 colony (thus <10 cfu/mL))
same,"Grade code, C. albicans, 14 Day","[1]; 14 days incubation, listed as 0.5% AB","4 (1001 to 10,000 colonies (thus 10,000 cfu/mL to 100,000 cfu/mL))"
same,"Grade code, C. albicans, 14 Day","[1]; 14 days incubation, listed as 1.25% AB","3 (101 to 1000 colonies (thus 1000 to 10,000 cfu/mL))"
same,"Grade code, C. albicans, 14 Day","[1]; 14 days incubation, listed as 2.5% AB",2 (52 to 100 colonies counted (thus 520 to 1000 cfu/mL))
same,"Grade code, C. albicans, 30 Days",[1]; [7],"4 (1001 to 10,000 colonies (thus 10,000 cfu/mL to 100,000 cfu/mL))"
same,"Grade code, C. albicans, 30 Days",[1]; [8],"4 (1001 to 10,000 colonies (thus 10,000 cfu/mL to 100,000 cfu/mL))"
same,"Grade code, C. albicans, 30 Days",[1]; [9],1 (1 to 51 colonies counted (thus 10 to 510 cfu/mL))
same,Grade code S. epidermidis,"[2]; 0.5%, 3 days incubation","4 (1001 to 10,000 colonies (thus 10,000 cfu/mL to 100,000 cfu/mL))"
same,Grade code S. epidermidis,"[2]; 0.5%, 13 days incubation","4 (1001 to 10,000 colonies (thus 10,000 cfu/mL to 100,000 cfu/mL))"
same,Grade code S. epidermidis,"[2]; 0.5%, 30 days incubation","4 (1001 to 10,000 colonies (thus 10,000 cfu/mL to 100,000 cfu/mL))"
same,Grade code S. epidermidis,"[2]; 1.25%, 3 days incubation",2 (52 to 100 colonies counted (thus 520 to 1000 cfu/mL))
same,Grade code S. epidermidis,"[2]; 1.25%, 13 days incubation",0.7
same,Grade code S. epidermidis,"[2]; 1.25%, 30 days incubation",2 (52 to 100 colonies counted (thus 520 to 1000 cfu/mL))
same,Grade code S. epidermidis,"[2]; 2.5%, 3 days incubation",0.7
same,Grade code S. epidermidis,"[2]; 2.5%, 13 days incubation",0 (No growth detected or <1 colony (thus <10 cfu/mL))
same,Grade code S. epidermidis,"[2]; 2.5%, 30 days incubation",0 (No growth detected or <1 colony (thus <10 cfu/mL))
same,"Grade code, S. epidermidis, 3 Days",[2]; [4],"4 (1001 to 10,000 colonies (thus 10,000 cfu/mL to 100,000 cfu/mL))"
same,"Grade code, S. epidermidis, 3 Days",[2]; [5],2 (52 to 100 colonies counted (thus 520 to 1000 cfu/mL))
same,"Grade code, S. epidermidis, 3 Days",[2]; [6],0.7
same,"Grade code, S. epidermidis, 13 Days",[2]; [10],"4 (1001 to 10,000 colonies (thus 10,000 cfu/mL to 100,000 cfu/mL))"
same,"Grade code, S. epidermidis, 13 Days",[2]; [11],0.7
same,"Grade code, S. epidermidis, 13 Days",[2]; [12],0 (No growth detected or <1 colony (thus <10 cfu/mL))
same,"Grade code, S. epidermidis, 30 Days",[2]; [7],"4 (1001 to 10,000 colonies (thus 10,000 cfu/mL to 100,000 cfu/mL))"
same,"Grade code, S. epidermidis, 30 Days",[2]; [8],2 (52 to 100 colonies counted (thus 520 to 1000 cfu/mL))
same,"Grade code, S. epidermidis, 30 Days",[2]; [9],0 (No growth detected or <1 colony (thus <10 cfu/mL))
same,Grade code S. mutans,"[3]; 0.5%, 3 days incubation","4 (1001 to 10,000 colonies (thus 10,000 cfu/mL to 100,000 cfu/mL))"
same,Grade code S. mutans,"[3]; 0.5%, 13 days incubation","4 (1001 to 10,000 colonies (thus 10,000 cfu/mL to 100,000 cfu/mL))"
same,Grade code S. mutans,"[3]; 0.5%, 30 days incubation","4 (1001 to 10,000 colonies (thus 10,000 cfu/mL to 100,000 cfu/mL))"
same,Grade code S. mutans,"[3]; 1.25%, 3 days incubation","4 (1001 to 10,000 colonies (thus 10,000 cfu/mL to 100,000 cfu/mL))"
same,Grade code S. mutans,"[3]; 1.25%, 13 days incubation",2 (52 to 100 colonies counted (thus 520 to 1000 cfu/mL))
same,Grade code S. mutans,"[3]; 1.25%, 30 days incubation",2 (52 to 100 colonies counted (thus 520 to 1000 cfu/mL))
same,Grade code S. mutans,"[3]; 2.5%, 3 days incubation",2 (52 to 100 colonies counted (thus 520 to 1000 cfu/mL))
same,Grade code S. mutans,"[3]; 2.5%, 13 days incubation",0 (No growth detected or <1 colony (thus <10 cfu/mL))
same,Grade code S. mutans,"[3]; 2.5%, 30 days incubation",0 (No growth detected or <1 colony (thus <10 cfu/mL))
same,"Grade code, S. mutans, 3 Day",[3]; [4],"4 (1001 to 10,000 colonies (thus 10,000 cfu/mL to 100,000 cfu/mL))"
same,"Grade code, S. mutans, 3 Day",[3]; [5],"4 (1001 to 10,000 colonies (thus 10,000 cfu/mL to 100,000 cfu/mL))"
same,"Grade code, S. mutans, 3 Day",[3]; [6],2 (52 to 100 colonies counted (thus 520 to 1000 cfu/mL))
same,"Grade code, S. mutans, 13 Day",[3]; [10],"4 (1001 to 10,000 colonies (thus 10,000 cfu/mL to 100,000 cfu/mL))"
same,"Grade code, S. mutans, 13 Day",[3]; [11],2 (52 to 100 colonies counted (thus 520 to 1000 cfu/mL))
same,"Grade code, S. mutans, 13 Day",[3]; [12],0 (No growth detected or <1 colony (thus <10 cfu/mL))
same,"Grade code, S. mutans, 30 Days",[3]; [7],"4 (1001 to 10,000 colonies (thus 10,000 cfu/mL to 100,000 cfu/mL))"
same,"Grade code, S. mutans, 30 Days",[3]; [8],2 (52 to 100 colonies counted (thus 520 to 1000 cfu/mL))
same,"Grade code, S. mutans, 30 Days",[3]; [9],0 (No growth detected or <1 colony (thus <10 cfu/mL))
"O=C([O-])CN(CCN(CC(=O)O)CC(=O)O)CC(=O)[O-].[Na+].[Na+] [EDTA, ethylenediaminetetraacetic acid disodium salt]","Grade code, C. albicans, 3 Day",[1]; 3 days incubation,"4 (1001 to 10,000 colonies (thus 10,000 cfu/mL to 100,000 cfu/mL))"
same,"Grade code, C. albicans, 14 Day",[1]; 14 days incubation,"5 (More than 10,000 colonies estimated (thus >100,000 cfu/mL))"
same,"Grade code, C. albicans, 30 Days",[1]; 30 days incubation,"5 (More than 10,000 colonies estimated (thus >100,000 cfu/mL))"
same,"Grade code, S. epidermidis, 3 Days",[2]; 3 days incubation,"4 (1001 to 10,000 colonies (thus 10,000 cfu/mL to 100,000 cfu/mL))"
same,"Grade code, S. epidermidis, 13 Days",[2]; 13 days incubation,"3 (101 to 1000 colonies (thus 1000 to 10,000 cfu/mL))"
same,"Grade code, S. epidermidis, 30 Days",[2]; 30 days incubation,"4 (1001 to 10,000 colonies (thus 10,000 cfu/mL to 100,000 cfu/mL))"
same,"Grade code, S. mutans, 3 Day",[3]; 3 days incubation,"4 (1001 to 10,000 colonies (thus 10,000 cfu/mL to 100,000 cfu/mL))"
same,"Grade code, S. mutans, 13 Day",[3]; 13 days incubation,"4 (1001 to 10,000 colonies (thus 10,000 cfu/mL to 100,000 cfu/mL))"
same,"Grade code, S. mutans, 30 Days",[3]; 30 days incubation,"4 (1001 to 10,000 colonies (thus 10,000 cfu/mL to 100,000 cfu/mL))"
